Legend:
Conditions in all cases: Compound concentration 10.0 uM
[1] = target: T1, 5-hydroxytryptamine receptor 1A (Homo sapiens) (UniProt P08908)
T1 sequence (whole entry): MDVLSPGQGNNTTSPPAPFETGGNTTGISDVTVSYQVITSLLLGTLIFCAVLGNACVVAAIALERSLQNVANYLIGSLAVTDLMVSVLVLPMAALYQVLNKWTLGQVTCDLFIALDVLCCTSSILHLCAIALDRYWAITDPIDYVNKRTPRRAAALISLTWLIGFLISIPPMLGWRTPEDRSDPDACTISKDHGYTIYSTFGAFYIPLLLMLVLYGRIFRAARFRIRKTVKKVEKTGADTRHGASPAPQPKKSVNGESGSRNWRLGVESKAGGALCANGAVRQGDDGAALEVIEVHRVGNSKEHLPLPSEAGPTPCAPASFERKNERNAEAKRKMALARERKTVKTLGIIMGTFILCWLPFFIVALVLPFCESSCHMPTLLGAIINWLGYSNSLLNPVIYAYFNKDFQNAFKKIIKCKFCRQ

[2] = target: 5-hydroxytryptamine receptor 1B (Homo sapiens) (UniProt P28222)
[3] = target: 5-hydroxytryptamine receptor 2A (Homo sapiens) (UniProt P28223)
[4] = target: 5-hydroxytryptamine receptor 3A (Homo sapiens) (UniProt P46098)
[5] = target: 5-hydroxytryptamine receptor 5A (Homo sapiens) (UniProt P47898)
[6] = target: D(1A) dopamine receptor (Homo sapiens) (UniProt P21728)
[7] = target: Sodium-dependent serotonin transporter (Homo sapiens) (UniProt P31645)
[8] = target: Delta-type opioid receptor (Homo sapiens) (UniProt P41143)
[9] = target: T2, GABA-A receptor; anion channel (Rattus norvegicus) (UniProt O09028+P15431+P18506+P18508+P19969+P20236+P23574+P23576+P28471+P28473+P30191+P62813+P63079+P63138+Q91ZM7+Q9ES14)
[10] = target: Histamine H2 receptor (Homo sapiens) (UniProt P25021)
[11] = target: Beta-2 adrenergic receptor (Homo sapiens) (UniProt P07550)
[12] = target: T3, Muscarinic acetylcholine receptor M1 (Homo sapiens) (UniProt P11229)
T3 sequence (whole entry): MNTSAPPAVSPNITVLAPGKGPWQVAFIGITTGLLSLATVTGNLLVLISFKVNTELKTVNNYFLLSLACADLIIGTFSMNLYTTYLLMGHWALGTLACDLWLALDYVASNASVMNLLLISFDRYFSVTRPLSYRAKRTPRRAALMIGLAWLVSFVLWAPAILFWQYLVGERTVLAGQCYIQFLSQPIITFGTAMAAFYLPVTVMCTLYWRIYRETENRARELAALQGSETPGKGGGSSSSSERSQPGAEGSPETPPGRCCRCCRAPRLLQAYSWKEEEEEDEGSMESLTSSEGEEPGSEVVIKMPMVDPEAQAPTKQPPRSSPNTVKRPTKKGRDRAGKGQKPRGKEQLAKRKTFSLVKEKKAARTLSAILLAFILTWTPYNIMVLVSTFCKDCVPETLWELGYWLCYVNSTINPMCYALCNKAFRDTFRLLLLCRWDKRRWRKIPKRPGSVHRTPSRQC

[13] = target: T4, Muscarinic acetylcholine receptor M2 (Homo sapiens) (UniProt P08172)
T4 sequence (whole entry): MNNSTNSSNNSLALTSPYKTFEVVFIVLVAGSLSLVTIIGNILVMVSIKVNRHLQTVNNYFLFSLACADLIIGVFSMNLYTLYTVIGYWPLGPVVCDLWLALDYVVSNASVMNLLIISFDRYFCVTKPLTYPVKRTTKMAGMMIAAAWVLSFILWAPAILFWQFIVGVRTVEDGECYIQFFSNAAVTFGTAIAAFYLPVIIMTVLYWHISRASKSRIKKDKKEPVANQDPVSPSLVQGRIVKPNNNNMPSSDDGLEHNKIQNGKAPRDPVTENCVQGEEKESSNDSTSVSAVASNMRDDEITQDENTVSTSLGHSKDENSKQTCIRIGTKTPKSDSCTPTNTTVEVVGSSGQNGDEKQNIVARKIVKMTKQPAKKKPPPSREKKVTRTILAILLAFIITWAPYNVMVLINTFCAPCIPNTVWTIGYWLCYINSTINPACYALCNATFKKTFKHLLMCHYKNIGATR

[14] = target: Muscarinic acetylcholine receptor M3 (Homo sapiens) (UniProt P20309)
[15] = target: T5, Muscarinic acetylcholine receptor M4 (Homo sapiens) (UniProt P08173)
T5 sequence (whole entry): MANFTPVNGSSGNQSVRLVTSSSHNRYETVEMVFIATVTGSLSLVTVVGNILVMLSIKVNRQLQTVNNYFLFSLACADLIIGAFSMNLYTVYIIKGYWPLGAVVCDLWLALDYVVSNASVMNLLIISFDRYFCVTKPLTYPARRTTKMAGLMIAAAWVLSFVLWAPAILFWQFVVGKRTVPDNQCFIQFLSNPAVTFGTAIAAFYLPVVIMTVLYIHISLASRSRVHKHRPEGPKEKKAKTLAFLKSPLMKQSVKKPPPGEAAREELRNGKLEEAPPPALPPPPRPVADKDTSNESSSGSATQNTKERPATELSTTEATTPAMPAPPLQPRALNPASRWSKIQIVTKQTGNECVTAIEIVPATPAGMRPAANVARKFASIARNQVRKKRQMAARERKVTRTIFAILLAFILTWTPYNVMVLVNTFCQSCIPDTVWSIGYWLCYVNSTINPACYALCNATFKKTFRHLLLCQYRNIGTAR

[16] = target: Muscarinic acetylcholine receptor M5 (Homo sapiens) (UniProt P08912)
[17] = target: T2, GABA-A receptor; anion channel (Rattus norvegicus); remark: listed apart in the source
[18] = target: Alpha-1D adrenergic receptor (Homo sapiens) (UniProt P25100)
Sequence of Alpha-1D adrenergic receptor (Homo sapiens) (P25100 whole entry): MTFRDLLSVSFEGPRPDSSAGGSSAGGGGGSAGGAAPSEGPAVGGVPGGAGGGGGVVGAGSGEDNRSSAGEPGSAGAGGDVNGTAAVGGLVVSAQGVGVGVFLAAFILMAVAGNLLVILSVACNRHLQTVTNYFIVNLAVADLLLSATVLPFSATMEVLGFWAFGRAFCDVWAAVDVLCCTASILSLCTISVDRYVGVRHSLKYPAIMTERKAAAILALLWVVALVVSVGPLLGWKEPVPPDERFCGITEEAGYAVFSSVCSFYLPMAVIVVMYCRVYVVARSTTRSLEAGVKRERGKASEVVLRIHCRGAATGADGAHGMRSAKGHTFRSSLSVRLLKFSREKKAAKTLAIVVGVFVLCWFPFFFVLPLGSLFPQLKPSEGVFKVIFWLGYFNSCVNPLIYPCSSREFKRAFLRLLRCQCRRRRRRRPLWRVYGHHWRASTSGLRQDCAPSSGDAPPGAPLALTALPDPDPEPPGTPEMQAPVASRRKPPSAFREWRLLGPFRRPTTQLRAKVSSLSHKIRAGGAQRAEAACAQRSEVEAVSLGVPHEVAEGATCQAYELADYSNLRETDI

Sequence of Histamine H2 receptor (Homo sapiens) (P25021 whole entry): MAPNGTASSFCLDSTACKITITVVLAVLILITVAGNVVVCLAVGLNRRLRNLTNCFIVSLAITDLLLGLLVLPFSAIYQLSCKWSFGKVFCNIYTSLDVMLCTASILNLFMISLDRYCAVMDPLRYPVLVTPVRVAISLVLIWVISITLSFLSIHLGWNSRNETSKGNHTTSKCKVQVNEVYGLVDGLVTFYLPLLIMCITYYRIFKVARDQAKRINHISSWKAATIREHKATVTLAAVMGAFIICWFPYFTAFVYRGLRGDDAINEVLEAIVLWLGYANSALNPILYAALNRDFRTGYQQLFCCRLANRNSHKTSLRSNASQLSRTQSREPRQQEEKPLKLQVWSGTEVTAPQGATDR
Sequence of Beta-2 adrenergic receptor (Homo sapiens) (P07550 whole entry, looked up): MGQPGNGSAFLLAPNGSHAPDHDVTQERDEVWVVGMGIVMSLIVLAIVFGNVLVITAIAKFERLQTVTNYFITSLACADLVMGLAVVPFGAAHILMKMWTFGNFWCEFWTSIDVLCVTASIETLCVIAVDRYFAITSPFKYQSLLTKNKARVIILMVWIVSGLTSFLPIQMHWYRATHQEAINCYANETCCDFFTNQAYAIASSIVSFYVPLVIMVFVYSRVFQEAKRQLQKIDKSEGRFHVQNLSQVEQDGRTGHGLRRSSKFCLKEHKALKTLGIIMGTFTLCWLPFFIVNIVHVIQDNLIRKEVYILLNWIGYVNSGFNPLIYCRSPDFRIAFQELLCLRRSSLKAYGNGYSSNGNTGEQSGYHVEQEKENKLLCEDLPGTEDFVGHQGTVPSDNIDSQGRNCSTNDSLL
Sequence of 5-hydroxytryptamine receptor 5A (Homo sapiens) (P47898 whole entry): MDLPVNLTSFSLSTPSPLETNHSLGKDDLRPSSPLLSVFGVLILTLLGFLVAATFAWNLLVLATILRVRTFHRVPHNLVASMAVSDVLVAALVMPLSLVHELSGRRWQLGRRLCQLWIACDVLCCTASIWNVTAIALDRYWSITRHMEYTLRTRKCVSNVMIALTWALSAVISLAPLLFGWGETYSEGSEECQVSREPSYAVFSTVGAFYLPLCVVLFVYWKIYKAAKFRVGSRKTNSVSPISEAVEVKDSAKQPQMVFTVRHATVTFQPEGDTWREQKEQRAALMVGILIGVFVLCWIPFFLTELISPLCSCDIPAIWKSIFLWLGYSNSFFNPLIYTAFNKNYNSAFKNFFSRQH
Sequence of Delta-type opioid receptor (Homo sapiens) (P41143 whole entry): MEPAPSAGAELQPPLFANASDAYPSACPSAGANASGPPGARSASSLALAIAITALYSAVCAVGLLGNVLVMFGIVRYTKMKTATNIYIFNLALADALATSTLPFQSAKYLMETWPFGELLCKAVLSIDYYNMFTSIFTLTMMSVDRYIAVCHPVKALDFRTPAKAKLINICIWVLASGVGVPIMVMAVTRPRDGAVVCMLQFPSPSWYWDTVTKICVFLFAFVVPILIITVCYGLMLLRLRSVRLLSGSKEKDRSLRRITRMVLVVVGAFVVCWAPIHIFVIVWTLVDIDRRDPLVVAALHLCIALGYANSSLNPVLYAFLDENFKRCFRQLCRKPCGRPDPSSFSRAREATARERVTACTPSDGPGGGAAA
Sequence of Sodium-dependent serotonin transporter (Homo sapiens) (P31645 whole entry, looked up): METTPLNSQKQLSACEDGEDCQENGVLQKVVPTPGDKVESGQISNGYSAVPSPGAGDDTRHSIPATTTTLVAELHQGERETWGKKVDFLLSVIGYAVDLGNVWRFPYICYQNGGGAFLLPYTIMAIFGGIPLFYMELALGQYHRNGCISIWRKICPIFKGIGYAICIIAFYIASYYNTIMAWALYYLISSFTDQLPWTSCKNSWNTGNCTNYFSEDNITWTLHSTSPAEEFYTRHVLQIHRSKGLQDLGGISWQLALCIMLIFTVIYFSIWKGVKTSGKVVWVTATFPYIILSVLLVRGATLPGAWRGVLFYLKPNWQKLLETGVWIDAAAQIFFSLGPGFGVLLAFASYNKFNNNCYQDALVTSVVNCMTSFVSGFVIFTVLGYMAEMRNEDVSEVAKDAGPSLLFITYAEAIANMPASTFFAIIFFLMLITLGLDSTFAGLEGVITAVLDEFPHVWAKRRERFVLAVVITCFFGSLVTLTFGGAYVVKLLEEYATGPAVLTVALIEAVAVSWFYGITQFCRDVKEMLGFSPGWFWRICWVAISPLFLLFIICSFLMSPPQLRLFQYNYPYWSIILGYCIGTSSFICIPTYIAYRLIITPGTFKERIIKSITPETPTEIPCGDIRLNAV
Sequence of Muscarinic acetylcholine receptor M3 (Homo sapiens) (P20309 whole entry, looked up): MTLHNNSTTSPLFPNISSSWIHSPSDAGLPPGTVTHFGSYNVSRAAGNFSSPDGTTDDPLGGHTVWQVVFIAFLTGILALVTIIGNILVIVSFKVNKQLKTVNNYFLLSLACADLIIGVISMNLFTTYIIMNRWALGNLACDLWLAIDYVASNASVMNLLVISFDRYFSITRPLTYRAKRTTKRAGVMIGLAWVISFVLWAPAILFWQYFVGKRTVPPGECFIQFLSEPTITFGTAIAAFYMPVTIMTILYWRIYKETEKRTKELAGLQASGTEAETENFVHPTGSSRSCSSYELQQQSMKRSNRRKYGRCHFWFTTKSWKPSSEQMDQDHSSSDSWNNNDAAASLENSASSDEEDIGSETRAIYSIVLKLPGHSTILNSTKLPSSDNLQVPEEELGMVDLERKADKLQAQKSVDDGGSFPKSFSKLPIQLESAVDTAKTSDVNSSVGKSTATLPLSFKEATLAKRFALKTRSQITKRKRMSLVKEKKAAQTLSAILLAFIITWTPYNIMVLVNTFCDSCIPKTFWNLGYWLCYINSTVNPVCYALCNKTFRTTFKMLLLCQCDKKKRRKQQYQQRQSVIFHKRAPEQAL
Sequence of 5-hydroxytryptamine receptor 2A (Homo sapiens) (P28223 whole entry): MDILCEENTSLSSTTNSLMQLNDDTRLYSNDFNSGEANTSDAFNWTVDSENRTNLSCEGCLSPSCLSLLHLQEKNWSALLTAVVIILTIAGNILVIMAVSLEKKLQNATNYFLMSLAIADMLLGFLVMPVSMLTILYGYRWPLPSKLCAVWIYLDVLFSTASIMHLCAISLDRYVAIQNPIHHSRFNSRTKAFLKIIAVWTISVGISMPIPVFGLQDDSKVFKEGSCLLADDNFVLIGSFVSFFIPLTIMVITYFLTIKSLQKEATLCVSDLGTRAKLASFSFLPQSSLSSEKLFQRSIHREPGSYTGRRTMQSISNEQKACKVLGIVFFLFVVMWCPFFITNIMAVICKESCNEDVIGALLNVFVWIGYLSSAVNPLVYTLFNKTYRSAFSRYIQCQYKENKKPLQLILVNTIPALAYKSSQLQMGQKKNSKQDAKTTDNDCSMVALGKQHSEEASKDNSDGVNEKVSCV
Sequence of Muscarinic acetylcholine receptor M5 (Homo sapiens) (P08912 whole entry): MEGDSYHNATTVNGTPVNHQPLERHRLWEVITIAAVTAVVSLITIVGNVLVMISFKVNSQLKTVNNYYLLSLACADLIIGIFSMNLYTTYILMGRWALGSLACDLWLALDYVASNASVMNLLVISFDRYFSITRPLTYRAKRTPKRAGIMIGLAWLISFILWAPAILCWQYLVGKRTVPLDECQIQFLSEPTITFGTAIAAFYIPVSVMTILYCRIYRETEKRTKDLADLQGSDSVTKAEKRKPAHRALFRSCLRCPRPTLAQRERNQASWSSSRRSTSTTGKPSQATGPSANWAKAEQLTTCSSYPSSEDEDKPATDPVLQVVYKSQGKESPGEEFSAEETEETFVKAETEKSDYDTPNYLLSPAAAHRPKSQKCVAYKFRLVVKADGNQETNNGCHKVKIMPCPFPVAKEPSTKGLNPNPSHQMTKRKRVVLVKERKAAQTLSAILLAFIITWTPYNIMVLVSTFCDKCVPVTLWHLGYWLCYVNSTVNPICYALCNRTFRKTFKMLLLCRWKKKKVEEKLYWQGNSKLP
Sequence of 5-hydroxytryptamine receptor 3A (Homo sapiens) (P46098 whole entry): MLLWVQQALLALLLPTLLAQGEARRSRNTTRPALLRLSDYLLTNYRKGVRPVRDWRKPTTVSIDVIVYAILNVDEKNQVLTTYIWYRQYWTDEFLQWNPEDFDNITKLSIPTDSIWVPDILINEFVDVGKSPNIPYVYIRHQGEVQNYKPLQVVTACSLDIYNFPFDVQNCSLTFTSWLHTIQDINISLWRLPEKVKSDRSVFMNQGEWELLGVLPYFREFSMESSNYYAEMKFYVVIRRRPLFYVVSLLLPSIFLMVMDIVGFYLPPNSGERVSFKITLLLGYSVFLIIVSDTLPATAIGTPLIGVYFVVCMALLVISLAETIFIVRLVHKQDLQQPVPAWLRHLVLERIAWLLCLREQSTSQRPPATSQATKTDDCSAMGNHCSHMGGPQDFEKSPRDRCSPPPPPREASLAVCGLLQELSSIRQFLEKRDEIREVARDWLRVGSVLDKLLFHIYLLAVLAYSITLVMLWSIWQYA

SMILES	inhibition [1] [%]	inhibition [2] [%]	inhibition [3] [%]	inhibition [4] [%]	inhibition [5] [%]	inhibition [6] [%]	inhibition [7] [%]	inhibition [8] [%]	inhibition [9] [%]	inhibition [10] [%]	inhibition [11] [%]	inhibition [12] [%]	inhibition [13] [%]	inhibition [14] [%]	inhibition [15] [%]	inhibition [16] [%]	inhibition [17] [%]	inhibition [18] [%]
Cc1c(N2CCNCC2)nc2ccc(Br)cc2c1C(=O)NC[C@H](CCC(=O)O)c1ccccc1Cl [BAY-403]	47.1	15.2	38	86	11.3	31.6	5.34	36	-0.16	-4.15	18.4	8.42	13.8	13.7	16.2	-0.13	38.3	16
Cc1c(N2CCCC2)nc2ccc(Br)cc2c1C(=O)NC[C@H](CCC(=O)O)c1ccccc1Cl [BAY-6672]	5.62	-2.2	5.24	37.7	-5.32	13.8	-7.59	15.4	8.16	23.3	19.9	14.3	14.6	-0.57	19.4	9.92	5.06	3.44

— ChEMBL document CHEMBL4630901 (2021)
